Reference: ChEMBL document CHEMBL3734705, “Synthesis and in vitro cytotoxicity of novel C-12 substituted-14-deoxy-andrographolide derivatives as potent anti-cancer agents” (2015)
The source made the active and inactive calls. The rule behind the calls is not given here.

Key:
[1] = Cytotoxicity against human SNB75 cells assessed as growth level at 10 uM after 48 hrs by SRB assay; assay type: functional, SNB-75
[2] = Cytotoxicity against human SNB19 cells assessed as growth level at 10 uM after 48 hrs by SRB assay; assay type: functional, SNB-19
A549 = test: Cytotoxicity against human A549 cells assessed as growth level at 10 uM after 48 hrs by SRB assay; assay type: functional
[3] = Cytotoxicity against human RXF393 cells assessed as growth level at 10 uM after 48 hrs by SRB assay; assay type: functional, RXF 393
EKVX [4] = test: Cytotoxicity against human EKVX cells assessed as growth level at 10 uM after 48 hrs by SRB assay; assay type: functional
U-251 = test: Cytotoxicity against human U251 cells assessed as growth level at 10 uM after 48 hrs by SRB assay; assay type: functional
[5] = Cytotoxicity against human HCC2998 cells assessed as growth level at 10 uM after 48 hrs by SRB assay; assay type: functional, HCC 2998
[6] = Cytotoxicity against human LOXIMVI cells assessed as growth level at 10 uM after 48 hrs by SRB assay; assay type: functional, LOX IMVI
Malme-3M = test: Cytotoxicity against human MALME-3M cells assessed as growth level at 10 uM after 48 hrs by SRB assay; assay type: functional
MCF7 = test: Cytotoxicity against human MCF7 cells assessed as growth level at 10 uM after 48 hrs by SRB assay; assay type: functional
[7] = Cytotoxicity against human HCT116 cells assessed as growth level at 10 uM after 48 hrs by SRB assay; assay type: functional, HCT-116
T47D = test: Cytotoxicity against human T47D cells assessed as growth level at 10 uM after 48 hrs by SRB assay; assay type: functional
HT-29 [8] = test: Cytotoxicity against human HT-29 cells assessed as growth level at 10 uM after 48 hrs by SRB assay; assay type: functional
SK-MEL-28 = test: Cytotoxicity against human SK-MEL-28 cells assessed as growth level at 10 uM after 48 hrs by SRB assay; assay type: functional
[9] = Cytotoxicity against human SF295 cells assessed as growth level at 10 uM after 48 hrs by SRB assay; assay type: functional, SF-295
[10] = Cytotoxicity against human SKOV3 cells assessed as growth level at 10 uM after 48 hrs by SRB assay; assay type: functional, SK-OV-3
[11] = Cytotoxicity against human RPMI8226 cells assessed as growth level at 10 uM after 48 hrs by SRB assay; assay type: functional, RPMI-8226
[12] = Cytotoxicity against human NCI-ADR-RES cells assessed as growth level at 10 uM after 48 hrs by SRB assay; assay type: functional
[13] = Cytotoxicity against human SNB19 cells assessed as growth inhibition at 10 uM after 48 hrs by SRB assay; assay type: functional; conditions: SNB-19, 48 h, read-out: GI
[14] = Cytotoxicity against human UACC62 cells assessed as growth inhibition at 10 uM after 48 hrs by SRB assay; assay type: functional; conditions: UACC-62, 48 h, read-out: GI
NCI-H322M = test: Cytotoxicity against human NCI-H322M cells assessed as growth inhibition at 10 uM after 48 hrs by SRB assay; assay type: functional; conditions: read-out: GI
ACHN = test: Cytotoxicity against human ACHN cells assessed as growth inhibition at 10 uM after 48 hrs by SRB assay; assay type: functional; conditions: read-out: GI
[15] = Cytotoxicity against human NCI-ADR-RES cells assessed as growth inhibition at 10 uM after 48 hrs by SRB assay; assay type: functional; conditions: read-out: GI
NCI-H226 = test: Cytotoxicity against human NCI-H226 cells assessed as growth inhibition at 10 uM after 48 hrs by SRB assay; assay type: functional; conditions: NCI-H226, 48 h, read-out: GI
[16] = Cytotoxicity against human HOP62 cells assessed as growth inhibition at 10 uM after 48 hrs by SRB assay; assay type: functional; conditions: HOP-62, 48 h, read-out: GI
HT-29 [17] = test: Cytotoxicity against human HT-29 cells assessed as growth inhibition at 10 uM after 48 hrs by SRB assay; assay type: functional; conditions: HT-29, 48 h, read-out: GI
[18] = Cytotoxicity against human Caki1 cells assessed as growth inhibition at 10 uM after 48 hrs by SRB assay; assay type: functional; conditions: CAKI-1, 48 h, read-out: GI
KM12 = test: Cytotoxicity against human KM12 cells assessed as growth inhibition at 10 uM after 48 hrs by SRB assay; assay type: functional; conditions: KM12, 48 h, read-out: GI
EKVX [19] = test: Cytotoxicity against human EKVX cells assessed as growth inhibition at 10 uM after 48 hrs by SRB assay; assay type: functional
[20] = Cytotoxicity against human SF539 cells assessed as growth inhibition at 10 uM after 48 hrs by SRB assay; assay type: functional; conditions: SF-539, 48 h, read-out: GI
A498 = test: Cytotoxicity against human A498 cells assessed as growth inhibition at 10 uM after 48 hrs by SRB assay; assay type: functional; conditions: A498, 48 h, read-out: GI
[21] = Cytotoxicity against human PC3 cells assessed as growth inhibition at 10 uM after 48 hrs by SRB assay; assay type: functional; conditions: PC-3, 48 h, read-out: GI
[22] = Cytotoxicity against human HCT116 cells assessed as growth inhibition at 10 uM after 48 hrs by SRB assay; assay type: functional; conditions: HCT-116, 48 h, read-out: GI
[23] = Cytotoxicity against human BT549 cells assessed as growth inhibition at 10 uM after 48 hrs by SRB assay; assay type: functional; conditions: BT-549, 48 h, read-out: GI
[24] = Cytotoxicity against human LOXIMVI cells assessed as growth inhibition at 10 uM after 48 hrs by SRB assay; assay type: functional; conditions: LOX IMVI, read-out: GI
[25] = Cytotoxicity against human SF268 cells assessed as growth inhibition at 10 uM after 48 hrs by SRB assay; assay type: functional; conditions: SF-268, 48 h, read-out: GI
786-0 = test: Cytotoxicity against human 786-0 cells assessed as growth inhibition at 10 uM after 48 hrs by SRB assay; assay type: functional; conditions: 786-0, 48 h, read-out: GI
MDA-MB-231 = test: Cytotoxicity against human MDA-MB-231 cells assessed as growth inhibition at 10 uM after 48 hrs by SRB assay; assay type: functional
CCRF-CEM = test: Cytotoxicity against human CCRF-CEM cells assessed as growth inhibition at 10 uM after 48 hrs by SRB assay; assay type: functional; conditions: read-out: GI
[26] = Cytotoxicity against human HCT15 cells assessed as growth inhibition at 10 uM after 48 hrs by SRB assay; assay type: functional; conditions: HCT-15, 48 h, read-out: GI
[27] = Cytotoxicity against human UO31 cells assessed as growth inhibition at 10 uM after 48 hrs by SRB assay; assay type: functional; conditions: UO-31, 48 h, read-out: GI

C=C1CC[C@@H]2[C@](C)(COC(C)=O)[C@H](OC(C)=O)CC[C@@]2(C)[C@@H]1CC(Nc1ccc(S(=O)(=O)NC(C)=O)cc1)C1=CCOC1=O (mixture of isomers)
Activity [1]: 26.28%
Activity [2]: 23.04%
Activity (A549): 27.95%
Activity [3]: -75.81%
Activity (EKVX [4]): 57.45%
Activity (U-251): -65.49%
Activity [5]: -12.74%
Activity [6]: -85.84%
Activity (Malme-3M): -43.58%
Activity (MCF7): -33.6%
Activity [7]: -63.92%
Activity (T47D): -3.67%
Activity (HT-29 [8]): -69.92%
Activity (SK-MEL-28): -36.62%
Activity [9]: 58.44%
Activity [10]: 67.34%
Activity [11]: -16.18%
Activity [12]: 11.87%

C=C1CC[C@@H]2[C@](C)(COC(C)=O)[C@H](OC(C)=O)CC[C@@]2(C)[C@@H]1CC(Sc1ccccc1)C1=CCOC1=O (mixture of isomers)
Activity [1]: 86.98%
Activity [2]: 51.79%
Activity (A549): 26.59%
Activity [3]: 5.01%
Activity (EKVX [4]): 57.74%
Activity (U-251): 22.94%
Activity [5]: 44.69%
Activity [6]: -83.89%
Activity (Malme-3M): 16.83%
Activity (MCF7): 2.14%
Activity [7]: -34.58%
Activity (T47D): 7.94%
Activity (HT-29 [8]): -39.29%
Activity (SK-MEL-28): 6.34%
Activity [9]: 65.88%
Activity [10]: 57.71%
Activity [11]: -4.72%
Activity [12]: 10.07%

C=C1CC[C@@H]2[C@](C)(CO)[C@H](O)CC[C@@]2(C)[C@@H]1C/C=C1/C(=O)OC[C@H]1O [ANDROGRAPHOLIDE]
inhibition of growth at 10 µM [13]: 12%
inhibition of growth at 10 µM [14]: 30.1%
inhibition of growth at 10 µM (NCI-H322M): 7.26%
inhibition of growth at 10 µM (ACHN): 10.2%
Activity [1]: 61.95%
Activity [2]: 88.03%
inhibition of growth at 10 µM [15]: 16.5%
inhibition of growth at 10 µM (NCI-H226): 8.26%
inhibition of growth at 10 µM [16]: 3.73%
inhibition of growth at 10 µM (HT-29 [17]): 73%
inhibition of growth at 10 µM [18]: 3.3%
inhibition of growth at 10 µM (KM12): 19.8%
Activity (A549): 87.82%
growth inhibition (GI) (EKVX [19]): inactive
Activity [3]: 125.24%
inhibition of growth at 10 µM [20]: 16.6%
Activity (EKVX [4]): 104.75%
inhibition of growth at 10 µM (A498): 12.2%
inhibition of growth at 10 µM [21]: 6.6%
inhibition of growth at 10 µM [22]: 40%
Activity (U-251): 75.79%
Activity [5]: 114.39%
Activity [6]: 21.84%
Activity (Malme-3M): 99.78%
Activity (MCF7): 57.55%
inhibition of growth at 10 µM [23]: 12.9%
Activity [7]: 60.01%
inhibition of growth at 10 µM [24]: 78.2%
Activity (T47D): 87.76%
inhibition of growth at 10 µM [25]: 2.34%
Activity (HT-29 [8]): 27%
inhibition of growth at 10 µM (786-0): 15.3%
growth inhibition (GI) (MDA-MB-231): inactive
inhibition of growth at 10 µM (CCRF-CEM): 76.5%
Activity (SK-MEL-28): 95.46%
Activity [9]: 113.89%
Activity [10]: 103.76%
Activity [11]: 83.28%
Activity [12]: 83.75%
inhibition of growth at 10 µM [26]: 38.1%
inhibition of growth at 10 µM [27]: 10.4%
